ChEMBL document CHEMBL1201862, “PubChem BioAssay data set” (2004)
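Protocol summary: plate cells (96-well), add compound at 5 concentrations, incubate 48 h, interpolate endpoints linearly. GI50: concentration for 50% inhibition of growth.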 Activity calls are given as the source filed them. Rule as the data show it: active = GI50 up to about 1.1 µM and inactive = higher.

Tests used:
Test in all cases: growth of human tumour cells (NCI), 48 h
A549 = test system: A549
CCRF-CEM = test system: CCRF-CEM
HL-60 = test system: HL-60
HT-29 = test system: HT-29
IGROV-1 = test system: IGROV-1
MCF7 = test system: MCF7
NCI-H226 = test system: NCI-H226
NCI-H460 = test system: NCI-H460
OVCAR-4 = test system: OVCAR-4
SF-268 = test system: SF-268
SF-539 = test system: SF-539
SK-MEL-28 = test system: SK-MEL-28
SK-OV-3 = test system: SK-OV-3
SR = test system: SR
SW-620 = test system: SW-620
UACC-257 = test system: UACC-257
HOP-92 = test system: HOP-92
KM12 = test system: KM12
T47D = test system: T47D
MDA-MB-231 = test system: MDA-MB-231

| SMILES | GI50 (A549) | GI50 (CCRF-CEM) | GI50 (HL-60) | GI50 (HT-29) | GI50 (IGROV-1) | GI50 (MCF7) | GI50 (NCI-H226) | GI50 (NCI-H460) | GI50 (OVCAR-4) | GI50 (SF-268) | GI50 (SF-539) | GI50 (SK-MEL-28) | GI50 (SK-OV-3) | GI50 (SR) | GI50 (SW-620) | GI50 (UACC-257) | GI50 (HOP-92) | GI50 (KM12) | GI50 (T47D) | GI50 (MDA-MB-231) |
| --- | --- | --- | --- | --- | --- | --- | --- | --- | --- | --- | --- | --- | --- | --- | --- | --- | --- | --- | --- | --- |
| CC(C)=Nn1cnc(C(=N)C#N)c1N | > 100 µM (inactive) | > 100 µM (inactive) | > 100 µM (inactive) | > 100 µM (inactive) | > 100 µM (inactive) | > 100 µM (inactive) | > 100 µM (inactive) | > 100 µM (inactive) | > 100 µM (inactive) | > 100 µM (inactive) | > 100 µM (inactive) | > 100 µM (inactive) | > 100 µM (inactive) | > 100 µM (inactive) | > 100 µM (inactive) | > 100 µM (inactive) |  |  |  |  |
| Cc1nc2cccc([N+](=O)[O-])c2c(NCCCN(C)C)c1C | 60.4 µM (inactive) | 21.3 µM (inactive) | 11 µM (inactive) | 19.9 µM (inactive) | > 100 µM (inactive) | 23 µM (inactive) | > 50.6 µM (inactive) | 24 µM (inactive) | 17.3 µM (inactive) | > 77.3 µM (inactive) | 45.4 µM (inactive) | > 100 µM (inactive) | > 100 µM (inactive) | > 34.5 µM (inactive) | 29.4 µM (inactive) | 23 µM (inactive) | > 100 µM (inactive) | 34.6 µM (inactive) | > 100 µM (inactive) |  |
| CC[C@@]1(O)C(=O)OCc2c1cc1n(c2=O)Cc2cc3c(OC)cccc3nc2-1 |  | < 0.01 µM (active) | < 0.01 µM (active) |  |  |  | 0.267 µM (active) |  | 1.06 µM (active) | < 0.1 µM (active) | < 0.1 µM (active) |  | 0.117 µM (active) | 0.1 µM (active) | 0.196 µM (active) | 0.558 µM (active) | 0.0432 µM (active) | 0.867 µM (active) | 0.0194 µM (active) |  |
| CN1C(=O)C(/C=N/NC(=O)c2cccnc2)C(N)N(C)C1=O (centres undefined) | > 100 µM (inactive) | > 100 µM (inactive) |  | > 100 µM (inactive) | > 100 µM (inactive) | > 100 µM (inactive) | > 100 µM (inactive) | > 100 µM (inactive) | > 100 µM (inactive) | > 100 µM (inactive) |  | > 100 µM (inactive) | > 100 µM (inactive) |  | > 100 µM (inactive) | > 100 µM (inactive) |  | > 100 µM (inactive) | > 100 µM (inactive) | > 100 µM (inactive) |
| COC(=O)c1ccc(C)cc1CC1Cc2cccc(C)c2C1=O (centres undefined) | 6.58 µM (inactive) | 4.73 µM (inactive) |  | 2.42 µM (inactive) | 7.96 µM (inactive) | 2.38 µM (inactive) | 3.83 µM (inactive) | 4.89 µM (inactive) | 19.2 µM (inactive) | 7.98 µM (inactive) | 4.02 µM (inactive) | 7.41 µM (inactive) | 8.05 µM (inactive) |  | 3.72 µM (inactive) | 11.7 µM (inactive) | 16 µM (inactive) | 4.08 µM (inactive) | 5.85 µM (inactive) | 7.1 µM (inactive) |
| CCOC(=O)C(=Cc1ccccc1Cl)C(=O)OCC | 2.21 µM (inactive) | 0.705 µM (active) | 1.23 µM (inactive) | 1.43 µM (inactive) | 3.49 µM (inactive) |  | 2.9 µM (inactive) | 3.21 µM (inactive) | 2.27 µM (inactive) | 2.19 µM (inactive) | 2.1 µM (inactive) | 1.94 µM (inactive) | 5.26 µM (inactive) | 0.547 µM (active) | 1.32 µM (inactive) | 1.82 µM (inactive) | 2.88 µM (inactive) | 1.31 µM (inactive) | 2.64 µM (inactive) | 1.83 µM (inactive) |
| CCOC(=O)C(NC(=O)CC)(Nc1ccc(F)cc1F)C(F)(F)F (centres undefined) | > 100 µM (inactive) | > 100 µM (inactive) | 34 µM (inactive) | > 100 µM (inactive) | > 100 µM (inactive) |  |  |  |  | > 100 µM (inactive) | > 100 µM (inactive) | > 100 µM (inactive) | > 100 µM (inactive) | > 100 µM (inactive) | 85.7 µM (inactive) | > 100 µM (inactive) |  |  | > 100 µM (inactive) |  |
| C=C(Br)C[N+]12CN3CN(CN(C3)C1)C2 | > 100 µM (inactive) | > 100 µM (inactive) | > 100 µM (inactive) | > 100 µM (inactive) | > 100 µM (inactive) |  | > 100 µM (inactive) | > 100 µM (inactive) | > 100 µM (inactive) | > 100 µM (inactive) | > 100 µM (inactive) | > 100 µM (inactive) | > 100 µM (inactive) | > 100 µM (inactive) | > 100 µM (inactive) | > 100 µM (inactive) | > 100 µM (inactive) | > 100 µM (inactive) | > 100 µM (inactive) | > 100 µM (inactive) |
| C[C@@H](c1ccccc1)n1c(N)c(C#N)c2ccc([N+](=O)[O-])cc2c1=O | > 100 µM (inactive) | 14.6 µM (inactive) | 8.75 µM (inactive) | 14.5 µM (inactive) |  |  | 1.68 µM (inactive) | 14.5 µM (inactive) | 14.2 µM (inactive) | 29.7 µM (inactive) |  | 15 µM (inactive) |  | 2.69 µM (inactive) | 19.1 µM (inactive) | 18.7 µM (inactive) | 7.13 µM (inactive) | 16.7 µM (inactive) | 15.7 µM (inactive) | 14.9 µM (inactive) |
| COC(=O)CCC(C)C1CCC2C3C(C[C@H](OC(C)=O)[C@]12C)[C@@]1(C)CCC2(C[C@H]1C[C@H]3OC(C)=O)OOC1(CC[C@]3(C)C4C[C@H](OC(C)=O)[C@]5(C)C(C(C)CCC(=O)OC)CCC5C4[C@H](OC(C)=O)C[C@@H]3C1)OO2 (some centres undefined) | 91.8 µM (inactive) | 14.8 µM (inactive) | 38.3 µM (inactive) | > 100 µM (inactive) | > 100 µM (inactive) | > 100 µM (inactive) | 66.8 µM (inactive) | 50.7 µM (inactive) | > 100 µM (inactive) | 92 µM (inactive) |  | > 100 µM (inactive) | > 100 µM (inactive) | 44.3 µM (inactive) | > 100 µM (inactive) | > 100 µM (inactive) |  | > 100 µM (inactive) |  | > 100 µM (inactive) |
| COc1ccc2c(c1)nc1n2C(c2c(F)cccc2Cl)SC1 (centres undefined) | 4.81 µM (inactive) | 3.1 µM (inactive) | 1.26 µM (inactive) | 4.52 µM (inactive) | 6.17 µM (inactive) | 3.66 µM (inactive) | 4.75 µM (inactive) | 3.68 µM (inactive) |  | 3.66 µM (inactive) | 3.25 µM (inactive) | 5 µM (inactive) |  |  |  | 18.2 µM (inactive) | > 37.3 µM (inactive) | 2.76 µM (inactive) | 3.32 µM (inactive) | 3.49 µM (inactive) |
| Cc1ccc(NC(S)=Nc2c(C)n(C)n(-c3ccccc3)c2=O)cc1 | > 100 µM (inactive) | > 100 µM (inactive) | 32.2 µM (inactive) | > 100 µM (inactive) | > 100 µM (inactive) | > 100 µM (inactive) | > 100 µM (inactive) | > 100 µM (inactive) |  | > 100 µM (inactive) | > 100 µM (inactive) | > 100 µM (inactive) | > 100 µM (inactive) | > 100 µM (inactive) | > 100 µM (inactive) | > 100 µM (inactive) | > 100 µM (inactive) | > 100 µM (inactive) |  | > 100 µM (inactive) |
| COc1cccc(NC(=O)c2c(N)n[nH]c2SC)c1 | > 100 µM (inactive) | > 100 µM (inactive) | > 100 µM (inactive) | > 100 µM (inactive) | > 100 µM (inactive) | > 100 µM (inactive) | > 100 µM (inactive) | > 100 µM (inactive) | > 100 µM (inactive) | > 100 µM (inactive) | > 100 µM (inactive) | > 100 µM (inactive) | > 100 µM (inactive) |  | > 100 µM (inactive) | > 100 µM (inactive) | > 100 µM (inactive) | > 100 µM (inactive) |  | > 100 µM (inactive) |
| COc1ccc(C(=O)C#Cc2cnc(O)nc2O)cc1 | 20.7 µM (inactive) | 2.52 µM (inactive) | 5.21 µM (inactive) | 11.5 µM (inactive) | > 42.2 µM (inactive) |  | 18.7 µM (inactive) | 25.1 µM (inactive) | 16.8 µM (inactive) | 21.1 µM (inactive) | 7.33 µM (inactive) | 14 µM (inactive) | 52.8 µM (inactive) | 2.76 µM (inactive) | 5.69 µM (inactive) | 11.9 µM (inactive) | 21.4 µM (inactive) | 18.7 µM (inactive) |  |  |
| CCN(CC)CCCCC1CCN(CC(=O)N2c3ccccc3NC(=O)CC2C)CC1 (centres undefined) | > 100 µM (inactive) | 65.8 µM (inactive) | 64.1 µM (inactive) | > 100 µM (inactive) | > 100 µM (inactive) |  | > 100 µM (inactive) | > 100 µM (inactive) | > 100 µM (inactive) | > 100 µM (inactive) | > 100 µM (inactive) | > 100 µM (inactive) | > 100 µM (inactive) | 56.6 µM (inactive) | > 100 µM (inactive) | > 100 µM (inactive) | > 100 µM (inactive) | > 100 µM (inactive) |  |  |
| O=C1CC2CCCC23CC2(CCN13)OCCO2 (centres undefined) | > 100 µM (inactive) | > 100 µM (inactive) | > 100 µM (inactive) | > 100 µM (inactive) | > 100 µM (inactive) |  | > 100 µM (inactive) | > 100 µM (inactive) | > 100 µM (inactive) | > 100 µM (inactive) | > 100 µM (inactive) | > 100 µM (inactive) | > 100 µM (inactive) | > 100 µM (inactive) | > 100 µM (inactive) | > 100 µM (inactive) | > 100 µM (inactive) | > 100 µM (inactive) |  |  |
